The text below walks through data of patent publication US5962502A, “Polyamidic acid derivatives with antigastrin activity, a method for their preparation, and their pharmaceutical use” (priority 1993, dated 1999).

For assay [1], the target named is T1, gastrin receptors or type-B cholecystokinin (CCK-B) receptors (Oryctolagus cuniculus, UniProt P46627).
T1 construct: Rabbit gastric mucous-membrane cells were prepared by conventional techniques; endogenous in cells; host or cells: freshly isolated rabbit gastric mucosal cells, enriched by elutriation to about 70% parietal cells
T1 sequence (P46627 1-452): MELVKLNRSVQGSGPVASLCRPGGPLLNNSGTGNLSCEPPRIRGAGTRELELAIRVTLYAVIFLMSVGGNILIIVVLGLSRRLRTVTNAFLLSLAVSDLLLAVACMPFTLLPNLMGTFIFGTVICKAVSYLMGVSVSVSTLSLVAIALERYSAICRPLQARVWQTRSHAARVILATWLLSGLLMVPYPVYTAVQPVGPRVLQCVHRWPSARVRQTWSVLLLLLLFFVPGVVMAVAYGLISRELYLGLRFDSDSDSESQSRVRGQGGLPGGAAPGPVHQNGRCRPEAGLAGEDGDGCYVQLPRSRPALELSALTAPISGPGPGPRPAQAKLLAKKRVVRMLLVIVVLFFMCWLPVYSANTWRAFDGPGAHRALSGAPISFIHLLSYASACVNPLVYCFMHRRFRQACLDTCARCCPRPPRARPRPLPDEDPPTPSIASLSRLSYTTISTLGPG
Description: Inhibition of the gastrin-induced increase of cytosolic calcium in rabbit gastric mucous-membrane cells (Fura 2). It counts as cell-based. Particulars: for Ratio IC50 Binding cortex / IC50 (gastric mucous cells): binding values taken from Table 3; for CCK-B-antagonistic activity IC50 (II): data taken from Table 4 (rabbit gastric mucous cells), reprinted in Table 6; for IC50, inhibition of the increase of cytosolic calcium: rabbit gastric mucous cells enriched in parietal cells, gastrin 5×10^-8; for IC50 order of magnitude, peripheral antigastrin activity: rabbit gastric mucous cells. Put shortly:
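Enzymatically dispersed (collagenase/pronase) rabbit gastric mucosal cells, loaded with Fura 2, were suspended at 0.8×10^6/ml in HEPES-buffered saline at 37 °C with stirring. Gastrin-induced cytosolic Ca²⁺ rise was measured with and without compound by fluorescence (excitation 340/380 nm, emission 505 nm).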

The next assay concerns the target T2, CCK-A (Cavia porcellus, UniProt Q63931).
T2 construct: A longitudinal strip of guinea-pig gall-bladder was put in a bath for isolated organs; from tissue; host or cells: guinea-pig gall bladder longitudinal strip
T2 sequence (Q63931 1-430): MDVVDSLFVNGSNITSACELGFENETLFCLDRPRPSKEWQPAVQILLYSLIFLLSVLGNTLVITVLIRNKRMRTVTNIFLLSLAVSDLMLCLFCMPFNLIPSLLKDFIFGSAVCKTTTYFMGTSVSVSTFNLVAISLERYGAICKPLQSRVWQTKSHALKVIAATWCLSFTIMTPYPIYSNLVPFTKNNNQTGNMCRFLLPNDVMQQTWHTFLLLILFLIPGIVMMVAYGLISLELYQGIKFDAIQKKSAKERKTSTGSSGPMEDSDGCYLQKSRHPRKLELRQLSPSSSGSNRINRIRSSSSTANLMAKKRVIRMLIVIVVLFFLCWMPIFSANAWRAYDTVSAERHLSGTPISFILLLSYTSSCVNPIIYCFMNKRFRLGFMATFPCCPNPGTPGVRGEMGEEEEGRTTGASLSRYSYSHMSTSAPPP
Description: Anti-CCK-A activity on guinea-pig gall bladder stimulated in vitro by CCK-8. Particulars: for Ratio I/II (CCK-A IC50 / CCK-B IC50): gall bladder IC50 over gastric mucous cells IC50; for IC50: guinea-pig gall bladder in vitro, CCK-8 10 ng/ml, read-out: CCK-A-antagonistic activity IC50 (I). How it is done: The experimental model used was guinea-pig gall bladder stimulated in vitro by CCK-8, with the use of lorglumide as the reference standard. A longitudinal strip of guinea-pig gall-bladder was put in a bath for isolated organs in the presence of Krebs buffer at a temperature of 32° C., with continuous oxygenation with an oxygen-CO2 mixture (95-[…]). The isometric contractions were detected by means of a force transducer and recorded.

The test system of assay [2] is acid secretion induced by pentagastrin. As to the kind of experiment: Acid secretion induced by pentagastrin in the anaesthetized rat. It counts as in vivo. The settings on record: for ED50: iv, 1 h, I.V. bolus, pentagastrin 30 mcg/kg/h, read-out: Activity (ID50), inhibition of the acid secretion induced by pentagastrin. The protocol:
The activity of the compounds of the invention against gastric secretion performed by means of a mechanism with an antigastrin effect, was examined in vivo in anaesthetized rats with the use of male animals weighing about 200 g. Gastric secretion was stimulated with pentagastrin and Lai's method [Gut 5, (1964), 327-341 ] was used, with slight modification.
After tracheotomy, the oesophagus and duodenum were cannulated. A tepid solution (37° C.) of 0.25 mM NaOH was perfused and was passed through the stomach by means of a peristaltic pump at a constant flow-rate of 1 ml/minute. After stabilization for 20 minutes, the stimulant, dissolved in a physiological solution, was perfused for 120 minutes at a dose of 30 mcg/kg/h, in a volume of 0.95 ml/hour. After perfusion for 60 minutes (the basal stimulation), the product under test was administered intravenously (I.V.) as a bolus and perfusion of the stimulant was continued for a further 60 minutes. The acid secretion was recorded continuously as a function of time.
The activity of the product was evaluated as the percentage reduction of secreted acidity after the administration of the product, in comparison with the basal acidity measured during the first 60 minutes of collection in the presence of pentagastrin alone.
The antagonistic compounds tested were administered in various doses so that an ID50, that is, the dose (in mg/kg I.V.) which could inhibit the effect of pentagastrin by 50%, could be calculated.

Another assay concerns the target T3, central CCK-B receptor (Cavia porcellus, UniProt H0VZC5).
T3 construct: Cerebral cortices of male white guinea-pigs were thus used; from tissue; host or cells: cerebral cortex membranes of male white guinea-pigs
T3 sequence (H0VZC5 1-426): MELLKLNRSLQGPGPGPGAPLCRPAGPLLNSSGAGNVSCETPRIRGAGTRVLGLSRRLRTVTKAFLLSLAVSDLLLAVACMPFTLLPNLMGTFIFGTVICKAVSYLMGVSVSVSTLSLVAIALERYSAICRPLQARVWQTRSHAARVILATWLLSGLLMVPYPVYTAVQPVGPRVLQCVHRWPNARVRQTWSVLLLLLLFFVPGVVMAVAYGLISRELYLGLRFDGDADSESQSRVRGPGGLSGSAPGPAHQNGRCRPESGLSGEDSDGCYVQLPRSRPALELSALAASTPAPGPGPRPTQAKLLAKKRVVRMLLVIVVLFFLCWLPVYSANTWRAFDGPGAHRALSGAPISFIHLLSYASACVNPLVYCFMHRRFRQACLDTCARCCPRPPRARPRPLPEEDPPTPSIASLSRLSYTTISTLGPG
As to the kind of experiment: Inhibition of the binding of [3-H][N-methyl-N-leucine]CCK-8 to guinea-pig cortical membranes. The settings on record: guinea-pig cortical membranes; for IC50: 150 minutes at 25° C. Put shortly:
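Male guinea-pig cerebral cortex membranes (about 300 mcg protein/ml) incubated with non-sulphated [3-H]-labelled CCK-8 tracer and compound 150 minutes at 25° C. Pellet radioactivity counted by liquid scintillation; nonspecific binding defined with 5.10^-6 M CCK-8.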

The subject of a further assay is CCK-B receptors. Particulars: guinea-pig; Knapp et al; cited from earlier work.

Values joined by “and” are separate entries in the source; they are usually repeats but may differ in a detail not shown here. Equal entries are not always repeated.

A word on the IC50: it is the concentration that inhibits the measured activity by half. In the case of `O=C(CC[C@@H](NC(=O)c1cc(Cl)cc(Cl)c1)C(=O)N1CCC2(CCCC2)CC1)N[C@@H](Cc1c[nH]c2ccccc12)C(=O)O` [Compound 20], in assay [1], the “Ratio IC50 Binding cortex / IC50 (gastric mucous cells)” value (“Ratio IC50 Binding cortex / IC50” for short) was 7.3; the “CCK-B-antagonistic activity IC50 (II)” value came out at 30 nM; the “IC50, inhibition of the increase of cytosolic calcium” value was 0.03 µmol/L. At CCK-A, the “Ratio I/II (CCK-A IC50 / CCK-B IC50)” value is 1397 and the IC50 came out at 41.9 µM. Further, in assay [2], the ED50 was 10.9 mg/kg and 17.4 µmol/kg. Besides, the “antigastrin activity relative to the diastereoisomer at the carbon atom (**)” value in assay [2] (pentagastrin-induced acid secretion) was “almost the same antigastrin activity”. Moreover, the IC50 on central CCK-B receptor stood at 220 nM.

For the compound `O=C(CC[C@@H](NC(=O)c1cc(Cl)cc(Cl)c1)C(=O)N1CCC2(CCCC2)CC1)N[C@H](Cc1cccc2ccccc12)C(=O)O` [Compound 25], in assay [1], the “Ratio IC50 Binding cortex / IC50” value is listed as 10.0; the “CCK-B-antagonistic activity IC50 (II)” value is 7 nM; the “IC50 order of magnitude, peripheral antigastrin activity” value is “nanomolar order of magnitude”; the “IC50, inhibition of the increase of cytosolic calcium” value was found to be 0.007 µmol/L. At CCK-A, the “Ratio I/II (CCK-A IC50 / CCK-B IC50)” value was 1214 and the IC50 turned out to be 8.5 µM. For the same compound, in assay [2], the ED50 is 7.1 mg/kg and 11.1 µmol/kg. On central CCK-B receptor, the “inhibition of the binding of [N-methyl-N-leucine]CCK-8, result in words” value is on record as “potent inhibitors” and the IC50 was determined as 70 nM.

For the compound `O=C(CC[C@@H](NC(=O)c1cc(Cl)cc(Cl)c1)C(=O)N1CCC2(CCCCC2)CC1)N[C@H](Cc1c[nH]c2ccccc12)C(=O)O` [Compound 30], in assay [1], the “Ratio IC50 Binding cortex / IC50” value is reported as 12.5; the “CCK-B-antagonistic activity IC50 (II)” value worked out at 8 nM; the “IC50 order of magnitude, peripheral antigastrin activity” value was “nanomolar order of magnitude”; the “IC50, inhibition of the increase of cytosolic calcium” value came to 0.008 µmol/L. On CCK-A, the “Ratio I/II (CCK-A IC50 / CCK-B IC50)” value is 1837 and the IC50 turned out to be 14.7 µM. Moreover, the ED50 in assay [2] is 15.2 mg/kg and 23.7 µmol/kg. On central CCK-B receptor, the “inhibition of the binding of [N-methyl-N-leucine]CCK-8, result in words” value is listed as “potent inhibitors” and the IC50 stood at 100 nM.

In the case of `O=C(CC[C@@H](NC(=O)c1cc(Cl)cc(Cl)c1)C(=O)N1CCC2(CCCC2)CC1)Nc1ccccc1C(=O)O` [Compound 50], in assay [1], the “Ratio IC50 Binding cortex / IC50” value came to 15.0 and the “IC50, inhibition of the increase of cytosolic calcium” value turned out to be 0.03 µmol/L. For the same compound, at CCK-A, the “Ratio I/II (CCK-A IC50 / CCK-B IC50)” value turned out to be 160.0 and the IC50 is 4.8 µM. Also, the ED50 in assay [2] is 12 mg/kg and 21.4 µmol/kg. The IC50 on central CCK-B receptor amounted to 450 nM.

For “non-sulphated [3-H] [N-methyl-N-leucine]CCK-8”, in the assay on CCK-B receptors, the “affinity for the receptors of the cortex (CCK-B) relative to those of the pancreas (CCK-A)” value was “approximately 4000 times”.
